In US6465396B1, “Method to promote growth of a plant” (Nara Institute of Science and Technology, priority 1999, dated 2002):
Read-outs that look alike come from different tables or passages of the source.

Experiments:
[1] = system: rice (Oryza sativa L.: Hinihikari); experiment: Photo-oxidation damage, photosynthetic ability as oxygen generation rate, rice leaves; conditions: for residual photosynthetic ability (oxygen generation rate): when control sample was reduced to 30%, concentration not given, FIG. 15
kidney bean = conditions: FIG. 19
Procedure: The seeds of kidney bean (Phaseolus vulgaris L.: tsurunashiinngenn) were used for the experiments. The plants were seeded under a vermiculight. They were grown under the light intensity of 150 μmol quanta/m^2·s. Normal leaves derived from the plant bodies of 2 to 4 weeks old were used for the experiments.
In the case of rice plant, a portion containing petiole was excised from the plant bodies and it was immersed into 10 ml of sample compound in a tube. It was incubated for 30 min at 25° C. under 150 μmol quanta/m^2·s of illumination. […] After the administration, water in the leaf disk was excluded, the leaf was set in the chamber and the ability of photosynthesis was measured on the leaf. […]
After measurement of rate of photosynthesis as described above, the air without carbon dioxide was introduced into the chamber and the light was illuminated at the intensity of 1600 μmol quanta/m^2·s for a certain period. […] The rate of oxygen generation was measured after this treatment and inhibition of photosynthetic ability caused by photo-oxidation damage was thus evaluated.
To estimate sanity of photo-system, the fluorescence originated from chlorophyl, the center of photo-system, was measured on rice under the same condition described above after photo-oxidation damage. […] The fluorescence was measured before and after photo-oxidation damage to estimate Fv/Fm value.

FDH gene = conditions: ground part (root) of rice; pretreatment with formic acid administration; FIG. 14
Procedure: In the case of utilization for northern analysis, total RNA was isolated from leaf and root of rice cultivated under condition described above, using Isogen RNA purification kit (Nippon gene).
RNA was prepared from the aerial part and the ground part (root) respectively and the northern analysis was performed on these samples. Forty μg of the total RNA was applied to each lane and electrophoresis was performed on 1% agarose gel (containing 2.2 M formaldehyde). The gel was charged for the capillary blotting using Hybond N+membrane (Amersham) using 20×SSC. The hybridization was performed according to instruction of AlkPhosDIREST (Amersham) and detection was performed using CDP-Star (Amersham). The FDH cDNA (open reading frame:1130 bp), amplified by PCR, was used as probe DNA.

[2] = system: formate dehydrogenase (FDH); conditions: root of rice cultivated in the presence of 1.4 mM formic acid, 25° C., two weeks; FIG. 12
Procedure: Then the alteration of FDH activity by administration of formic acid was investigated. The rice plant bodies were cultivated in the presence or absence of 1.4 mM formic acid at 25° C. for two weeks. The aerial part and the ground part (root) was separated and the crude enzyme solution was prepared from each part. The enzyme solution was prepared to 1.5 mg/ml and FDH activities of the samples were measured. The FDH activity was measured using [^13C] formic acid as the substrate and detecting [^13C] CO2 in the supernatant by GC-MS.

tabacco = conditions: FIG. 18
Procedure: The seeds of tabacco (Nicotina tabacum L.: SRI) were used for the experiment. The plants were seeded under a vermiculight. They were grown under the light intensity of 150 μmol quanta/m^2·s. Normal leaves derived from the plant bodies of 4 to 6 weeks old were used for the experiments.
In the case of rice plant, a portion containing petiole was excised from the plant bodies and it was immersed into 10 ml of sample compound in a tube. It was incubated for 30 min at 25° C. under 150 μmol quanta/m^2·s of illumination. After administration of sample compounds, the leaves of rice were sliced and put in a chamber with diameter of 35 mm and the rate of oxygen generation (μmol O2/m^2·s) was estimated. In the case of other plants, a leaf disk with diameter of 35 mm was prepared prior to the experiment. […] After the administration, water in the leaf disk was excluded, the leaf was set in the chamber and the ability of photosynthesis was measured on the leaf. […]
After measurement of rate of photosynthesis as described above, the air without carbon dioxide was introduced into the chamber and the light was illuminated at the intensity of 1600 μmol quanta/m^2·s for a certain period. […] The rate of oxygen generation was measured after this treatment and inhibition of photosynthetic ability caused by photo-oxidation damage was thus evaluated. […]

[3] = system: kidney bean (Phaseolus vulgaris L.: tsurunashiinngenn); conditions: 2 mM, FIG. 5
Procedure: (§1) The plants were seeded under a vermiculight.
(§2) Generation of oxygen was measured by clark type oxygen electrode. The cuvette (LD2/2 type), the oxygen electrode controller (CB 1-D3 type) and the light source (LS-2, Hansatec corp.) were adopted as components of the measuring device. The chamber of cuvette contained in this device is composed of combination of a chamber, capable of hermetically sealing with diameter of 35 mm and volume of 5 ml, and an oxygen electrode. As upper side of the chamber is transparent, arbitrary intensity of light can be illuminated. The plant body described above, after administration of formic acid, was enclosed in the chamber and sealed hermetically. It was illuminated using a halogen lamp as the light source, and the rate of oxygen generation was measured under the air containing 5% of carbon dioxide. Unless specified otherwise, the measurement was performed under the light adjusted to a intensity of 253 μmol quanta/m^2·s using a red filter or an attenuation filter. The oxygen generation was calculated by dividing the obtained value with the surface area of the leaf.

[4] = system: tabacco (Nicotina tabacum L.: SRI); conditions: 2 mM, FIG. 6
Procedure: as §1, §2

rice plant bodies = experiment: Plant growth test, rice; assay type: in vivo, Oryza sativa L.; conditions: 2 weeks cultivation
Source text: The effect of formate salts addition observed on plant growth was investigated. The seeds of rice were sterilized and seeded into a glass tube (130 mm×40 mm I.D) containing medium described below. The contents of the medium are ½MS salt, 0.1% gellan gum and various concentrations of sodium formate. The pH was adjusted to 6.0 by addition of 1N sodium hydroxide and the medium was sterilized by autoclave treatment. […] After cultivation for 2 weeks under this condition, the extent of growth was estimated by measurement of length of the aerial part and wet weight of plant bodies.

SMILES: O=C[O-].[Na+] [formate salt]
- photosynthetic ability under various light intensities after photo-oxidation damage ([1]; formate salt, strong light illumination (inclination not altered under weak light), FIG. 3): inhibited damage on photosynthetic ability under strong light illumination
- residual photosynthetic ability (oxygen generation rate) [1]: 60%

SMILES: O=CO [formate]
- damage on photo-system (Fv/Fm) caused by photo-oxidation damage (rice; 2 mM, FIG. 7): avoided

SMILES: O=CO [formic acid]
- damage on photo-system by chlorophyl fluorescence analysis (kidney bean; 2 mM): potency
- expression of FDH gene (FDH gene): significant increase
- FDH activity compared to control group [2]: about twice
- damage on photo-system by chlorophyl fluorescence analysis (tabacco; 2 mM): potency

SMILES: CO [methanol]
- damage on photo-system by chlorophyl fluorescence analysis (kidney bean; 100 mM): significantly alleviated
- photosynthetic ability under various light intensities after photo-oxidation damage ([1]; methanol, especially under strong light illumination, FIG. 16): avoided photo-oxidation damage
- residual photosynthetic ability (oxygen generation rate) [1]: 70%
- reduction of Fv/Fm value caused by photo-oxidation damage (rice; 25 mM or 50 mM, FIG. 17): significant inhibition
- damage on photo-system by chlorophyl fluorescence analysis (tabacco; 100 mM): significantly alleviated

SMILES: O=C[O-].[K+] [potassium formate, Potassium formate]
- dose-dependency of protection on photo-oxidation damage ([1]; 2 mM or 4 mM, FIG. 4): optimum protection
- oxygen generation activity retained after photo-oxidation damage ([1]; 2 mM, 8 min strong light illumination in the absence of carbon dioxide, control reduced to about 30%, FIG. 1): 90%
- time course of damage on photosynthetic ability ([1]; 2 mM, photo-oxidation damage treatment 2 min, 4 min, FIG. 2): the damage on photosynthetic ability was inhibited
- effect on oxygen generation rate reduction caused by photo-oxidation damage [3]: exhibited inhibition
- effect on oxygen generation rate reduction caused by photo-oxidation damage [4]: exhibited inhibition

SMILES: O=C[O-].[Na+] [sodium formate]
- growth promotion, wet weight of plant bodies (rice plant bodies; 125 ppm in medium, FIG. 8): 25%
- growth promotion, length of aerial part (rice plant bodies; 125 ppm in medium, FIG. 9): 25%
- growth promotion effect (rice plant bodies; 1000 ppm in medium): disappeared
